Test results as given in patent US4359458A, “O-β. -D (and O-α.. -D) Multigalactopyranosyl, xylopyranosyl and glucopyranosyl sulfate salts” (American Cyanamid Company, priority 1981, dated 1982).
Where a name gives a salt, the structure may show the parent alone.

Experiments:
activated human C1 = activated human C1 (Homo sapiens, UniProt P09871); test: Test Code 026 (C1 inhibitor); assay type: biochemical; details: serial dilution assay, twofold dilutions; higher well number indicates higher activity
Description: (§1) An active inhibitor protects C2 from C1 and C4; (ii) Test Code 035 (C3-C9 inhibitor)--This test determines the ability of the late components of human complement (C3-C9) to lyse EAC 142 in the presence of appropriate dilutions of the test compound. An active inhibitor protects EAC 142 from lysis by human C3-C9; (iii) Test Code 036 (C-Shunt inhibitor)--In this test human erythrocytes rendered fragile are lysed in autologous serum via the shunt pathway activated by cobra venom factor in the presence of appropriate dilutions of the test compound. Inhibition of the shunt pathway results in failure of lysis; (iv) Cap 50 Test--Here, appropriate amounts of the test compound are added to a pool of guinea pig serum in vitro, after which the undiluted serum capillary tube assay of U.S. Pat. No. 3,876,376 is run. The concentration of compound inhibiting 50% is reported; and (v) Guinea Pig Intraperitoneal Test (GPIP)--Guinea pigs weighing about 300 g are dosed intraperitoneally (i.p.) with 200 mg/kg of the test compound dissolved in saline and adjusted to pH 7-8. Approximately 0.4 ml blood samples, taken by orbital sinus puncture 30 minutes and one hour after injections, are collected directly into centrifuge tubes; 5 ml blood samples, taken by decapitation 2 hours after injection are collected directly into beakers. The samples are allowed to clot, centrifuged, and the resultant sera are assayed for complement activity using the capillary complement assay. Percent inhibition is calculated by comparison with simultaneous controls. The results of the GPIP appear in Table I together with results of test code 026, 035, 036 and Cap 50.

[1] = tested on: late components of human complement (C3-C9); test: Test Code 035 (C3-C9 inhibitor); assay type: biochemical; details: serial dilution assay, twofold dilutions; higher well number indicates higher activity; N = Negative
Description: as §1

[2] = tested on: shunt pathway activated by cobra venom factor; test: Test Code 036 (C-Shunt inhibitor); assay type: cell-based, human; details: serial dilution assay, twofold dilutions; higher well number indicates higher activity; N = Negative
Description: as §1

| Compound | Cl 026 Wells (activated human C1) [Wells] | C-Late 035 Wells [1] | C-Shunt Inhibition 036 Wells [2] |
| --- | --- | --- | --- |
| O=S(=O)(O)OC[C@H]1O[C@@H](OC[C@H]2O[C@H](O[C@H]3O[C@H](CO[C@@H]4O[C@H](COS(=O)(=O)O)[C@@H](O[C@H]5O[C@H](COS(=O)(=O)O)[C@@H](OS(=O)(=O)O)[C@H](OS(=O)(=O)O)[C@H]5OS(=O)(=O)O)[C@H](OS(=O)(=O)O)[C@H]4OS(=O)(=O)O)[C@@H](OS(=O)(=O)O)[C@H](OS(=O)(=O)O)[C@H]3OS(=O)(=O)O)[C@H](OS(=O)(=O)O)[C@@H](OS(=O)(=O)O)[C@@H]2OS(=O)(=O)O)[C@H](OS(=O)(=O)O)[C@@H](OS(=O)(=O)O)[C@@H]1O[C@H]1O[C@H](COS(=O)(=O)O)[C@@H](OS(=O)(=O)O)[C@H](OS(=O)(=O)O)[C@H]1OS(=O)(=O)O [drawing 16, Glc 1α,4 glc 1β,6 glc 1α,1α' glc 1β,6 glc 1α,4 glc, eicosakis (H-sulfate), eicosasodium salt] | 10 | N | 6 Wells |
| O=S(=O)(O)OC[C@H]1O[C@@H](OC[C@H]2O[C@H](O[C@H]3O[C@H](CO[C@@H]4O[C@H](COS(=O)(=O)O)[C@H](OS(=O)(=O)O)[C@H](OS(=O)(=O)O)[C@H]4OS(=O)(=O)O)[C@@H](OS(=O)(=O)O)[C@H](OS(=O)(=O)O)[C@H]3OS(=O)(=O)O)[C@H](OS(=O)(=O)O)[C@@H](OS(=O)(=O)O)[C@@H]2OS(=O)(=O)O)[C@H](OS(=O)(=O)O)[C@@H](OS(=O)(=O)O)[C@H]1OS(=O)(=O)O [drawing 12, Gal 1β,6 glc 1α,1α' glc 1β,6 gal, tetradecakis (H-sulfate), tetradecasodium salt] | 9 | – | 6 Wells |
| O=S(=O)(O)OC[C@H]1O[C@@H](OC[C@H]2O[C@H](O[C@H]3O[C@H](CO[C@@H]4O[C@H](COS(=O)(=O)O)[C@@H](O[C@H]5O[C@H](COS(=O)(=O)O)[C@@H](O[C@H]6O[C@H](COS(=O)(=O)O)[C@@H](O[C@H]7O[C@H](COS(=O)(=O)O)[C@@H](O[C@H]8O[C@H](COS(=O)(=O)O)[C@@H](O[C@H]9O[C@H](COS(=O)(=O)O)[C@@H](O[C@H]%10O[C@H](COS(=O)(=O)O)[C@@H](OS(=O)(=O)O)[C@H](OS(=O)(=O)O)[C@H]%10OS(=O)(=O)O)[C@H](OS(=O)(=O)O)[C@H]9OS(=O)(=O)O)[C@H](OS(=O)(=O)O)[C@H]8OS(=O)(=O)O)[C@H](OS(=O)(=O)O)[C@H]7OS(=O)(=O)O)[C@H](OS(=O)(=O)O)[C@H]6OS(=O)(=O)O)[C@H](OS(=O)(=O)O)[C@H]5OS(=O)(=O)O)[C@H](OS(=O)(=O)O)[C@H]4OS(=O)(=O)O)[C@@H](OS(=O)(=O)O)[C@H](OS(=O)(=O)O)[C@H]3OS(=O)(=O)O)[C@H](OS(=O)(=O)O)[C@@H](OS(=O)(=O)O)[C@@H]2OS(=O)(=O)O)[C@H](OS(=O)(=O)O)[C@@H](OS(=O)(=O)O)[C@@H]1O[C@H]1O[C@H](COS(=O)(=O)O)[C@@H](O[C@H]2O[C@H](COS(=O)(=O)O)[C@@H](O[C@H]3O[C@H](COS(=O)(=O)O)[C@@H](O[C@H]4O[C@H](COS(=O)(=O)O)[C@@H](O[C@H]5O[C@H](COS(=O)(=O)O)[C@@H](O[C@H]6O[C@H](COS(=O)(=O)O)[C@@H](OS(=O)(=O)O)[C@H](OS(=O)(=O)O)[C@H]6OS(=O)(=O)O)[C@H](OS(=O)(=O)O)[C@H]5OS(=O)(=O)O)[C@H](OS(=O)(=O)O)[C@H]4OS(=O)(=O)O)[C@H](OS(=O)(=O)O)[C@H]3OS(=O)(=O)O)[C@H](OS(=O)(=O)O)[C@H]2OS(=O)(=O)O)[C@H](OS(=O)(=O)O)[C@H]1OS(=O)(=O)O [drawing 23, Glc 1α,4 (glc 1α,4)5 glc 1β,6 glc 1α,1α'glc 1β,6 glc (glc 1α,4)5 1α,4 glc, pentacontakis (H-sulfate), pentacontasodium salt] | 9 | 2 Wells | 6 Wells |
| O=S(=O)(O)OC[C@H]1O[C@@H](OC[C@H]2O[C@H](O[C@H]3O[C@H](COS(=O)(=O)O)[C@@H](OS(=O)(=O)O)[C@H](OS(=O)(=O)O)[C@H]3OS(=O)(=O)O)[C@H](OS(=O)(=O)O)[C@@H](OS(=O)(=O)O)[C@@H]2OS(=O)(=O)O)[C@H](OS(=O)(=O)O)[C@@H](OS(=O)(=O)O)[C@@H]1O[C@H]1O[C@H](COS(=O)(=O)O)[C@@H](O[C@H]2O[C@H](COS(=O)(=O)O)[C@@H](O[C@H]3O[C@H](COS(=O)(=O)O)[C@@H](O[C@H]4O[C@H](COS(=O)(=O)O)[C@@H](O[C@H]5O[C@H](COS(=O)(=O)O)[C@@H](O[C@H]6O[C@H](COS(=O)(=O)O)[C@@H](OS(=O)(=O)O)[C@H](OS(=O)(=O)O)[C@H]6OS(=O)(=O)O)[C@H](OS(=O)(=O)O)[C@H]5OS(=O)(=O)O)[C@H](OS(=O)(=O)O)[C@H]4OS(=O)(=O)O)[C@H](OS(=O)(=O)O)[C@H]3OS(=O)(=O)O)[C@H](OS(=O)(=O)O)[C@H]2OS(=O)(=O)O)[C@H](OS(=O)(=O)O)[C@H]1OS(=O)(=O)O [drawing 26, glc 1α,4 (glc 1α,4)5 glc 1β,6 glc 1α,1α'glc, nonacosakis (H-sulfate), nonacosasodium salt] | 10 | 1 Wells | 6 Wells |
| O=S(=O)(O)OC[C@H]1O[C@@H](OC[C@H]2O[C@H](O[C@H]3O[C@H](CO[C@@H]4O[C@H](COS(=O)(=O)O)[C@@H](O[C@H]5O[C@H](COS(=O)(=O)O)[C@@H](O[C@H]6O[C@H](COS(=O)(=O)O)[C@@H](OS(=O)(=O)O)[C@H](OS(=O)(=O)O)[C@H]6OS(=O)(=O)O)[C@H](OS(=O)(=O)O)[C@H]5OS(=O)(=O)O)[C@H](OS(=O)(=O)O)[C@H]4OS(=O)(=O)O)[C@@H](OS(=O)(=O)O)[C@H](OS(=O)(=O)O)[C@H]3OS(=O)(=O)O)[C@H](OS(=O)(=O)O)[C@@H](OS(=O)(=O)O)[C@@H]2OS(=O)(=O)O)[C@H](OS(=O)(=O)O)[C@@H](OS(=O)(=O)O)[C@@H]1O[C@H]1O[C@H](COS(=O)(=O)O)[C@@H](O[C@H]2O[C@H](COS(=O)(=O)O)[C@@H](OS(=O)(=O)O)[C@H](OS(=O)(=O)O)[C@H]2OS(=O)(=O)O)[C@H](OS(=O)(=O)O)[C@H]1OS(=O)(=O)O [drawing 19, Glc 1α,4 glc 1α,4 glc 1β,6 glc 1α,1α' glc 1β,6 glc 1α,4 glc 1α,4 glc, hexacosakis (H-sulfate), hexacosasodium salt] | 9 | 1 Wells | 6 Wells |
| O=S(=O)(O)OC[C@H]1O[C@@H](OC[C@H]2O[C@H](O[C@H]3O[C@H](CO[C@@H]4O[C@H](COS(=O)(=O)O)[C@@H](O[C@H]5O[C@H](COS(=O)(=O)O)[C@@H](OS(=O)(=O)O)[C@H](OS(=O)(=O)O)[C@H]5OS(=O)(=O)O)[C@H](OS(=O)(=O)O)[C@H]4OS(=O)(=O)O)[C@@H](OS(=O)(=O)O)[C@H](OS(=O)(=O)O)[C@H]3OS(=O)(=O)O)[C@H](OS(=O)(=O)O)[C@@H](OS(=O)(=O)O)[C@@H]2OS(=O)(=O)O)[C@H](OS(=O)(=O)O)[C@@H](OS(=O)(=O)O)[C@@H]1O[C@H]1O[C@H](COS(=O)(=O)O)[C@@H](OS(=O)(=O)O)[C@H](OS(=O)(=O)O)[C@H]1OS(=O)(=O)O [drawing 15, Glc 1α,4 glc 1β,6 glc 1α,1α' glc 1β,6 glc 1α,4 glc, eicosakis (H-sulfate), eicosasalt with trimethylamine] | 5 | N | N |
| O=S(=O)(O)OC[C@H]1O[C@@H](OC[C@H]2O[C@H](O[C@H]3O[C@H](CO[C@@H]4O[C@H](COS(=O)(=O)O)[C@H](OS(=O)(=O)O)[C@H](OS(=O)(=O)O)[C@H]4OS(=O)(=O)O)[C@@H](OS(=O)(=O)O)[C@H](OS(=O)(=O)O)[C@H]3OS(=O)(=O)O)[C@H](OS(=O)(=O)O)[C@@H](OS(=O)(=O)O)[C@@H]2OS(=O)(=O)O)[C@H](OS(=O)(=O)O)[C@@H](OS(=O)(=O)O)[C@H]1OS(=O)(=O)O [drawing 11, Gal 1β,6 glc 1α,1α' glc 1β,6 gal, tetradecakis (H-sulfate), tetradecasalt with trimethylamine] | 9 | – | 5 Wells |
| O=S(=O)(O)O[C@@H]1[C@@H](OS(=O)(=O)O)[C@@H](O[C@H]2O[C@H](CO[C@@H]3OC[C@@H](OS(=O)(=O)O)[C@H](OS(=O)(=O)O)[C@H]3OS(=O)(=O)O)[C@@H](OS(=O)(=O)O)[C@H](OS(=O)(=O)O)[C@H]2OS(=O)(=O)O)O[C@H](CO[C@@H]2OC[C@@H](OS(=O)(=O)O)[C@H](OS(=O)(=O)O)[C@H]2OS(=O)(=O)O)[C@H]1OS(=O)(=O)O [drawing 13, Xyl 1β,6 glc 1α,1α' glc 1β,6 xyl, dodecakis (H-sulfate), dodecasalt with trimethylamine] | 10 | – | 3 Wells |
